Consider three molecules from patent publication US8735584B2 (Merck Patent GmbH, priority 2008, dated 2014).

What all share (format): biochemical
One assay concerns the target T1, ABL (Homo sapiens, UniProt P00519).
T1 construct: purchased Caliper Life Sciences
Description: Desktop Profiler kinase panel, ABL. Particulars: 10 micromolar concentration of the compound; read-out: Percent Inhibition ABL. The method, then:
(§1) The Aurora assays described here are performed on two Caliper Life Sciences systems: the LC3000 and the Desktop Profiler. These provide data on enzyme activity via measurement of the relative amounts of phosphorylated or unphosphorylated fluorescently labelled substrate peptide at the end of an enzymatic reaction. These different states of peptide are resolved by applying a potential difference across the sample. The presence of the charged phosphate group on the product (as opposed to the substrate) causes a different peptide mobility between the two peptides. This is visualized by excitation of the fluorescent label on the substrate and product peptides and represented as peaks within the analysis software.
(§2) The Desktop Profiler utilizes the same principle as the LC3000 for calculating percentage conversion of a substrate to product. Caliper Life Sciences provides proprietary flash frozen pre-made 384 well plates containing selected kinases. Each column in the 384 well plate contains a particular selected kinase. A second plate, the ‘substrate plate’ contains a mix of fluorescently labeled peptide substrate and ATP. These are arranged in columns so that transfer for substrate plate to enzyme plate provides the correct enzyme with the correct substrate/ATP concentration. Compounds are added to a thawed enzyme plate in the desired format, in single concentrations. Reactions are initiated by transfer of the substrate/ATP mix from the substrate plate. The enzyme plate is incubated for 90 mins at 25 C. The reaction is stopped by addition of 70 ul of Stop Buffer (100 mM HEPES pH 7.5, 0.015% Brij-35, 10 mM EDTA (Sigma, E7889)).
(§3) Reading of the plate in the Profiler is identical to the LC3000, and the ratio between substrate and product peaks provides the activity of the enzyme in that well. This is best represented by a plate heat map which colors each well by percent inhibition as compared to positive and negative controls (no inhibitors and no ATP respectively).
(§4) In the following Tables 3a-4-b, which show the results of the desktop profiler measurements, “+” means 50-70% inhibition, “++” means 70-90% inhibition, and “+++” means >90% inhibition. The enzymes tested for profiling were ABL, AKT1, AKT2, AurA, CHK1, CHK2, CK1d, Erk1, Erk2, FYN, GSK3b, INSR, LCK, LYN, MAPKAPK2, MET, MSK1, p38a, PKA, PKCz, PKD2, PRAK, RSK1 and SRC.

The target in another assay is T2, CHK2 (Homo sapiens, UniProt O96017).
T2 construct: purchased Caliper Life Sciences
Description: Desktop Profiler kinase panel, CHK2. The conditions noted are these: 10 micromolar concentration of the compound; read-out: Percent Inhibition CHK2. On the procedure:
as §1, §2, §3, §4

For a further assay, the target named is T3, LYN (Homo sapiens, UniProt P07948).
T3 construct: purchased Caliper Life Sciences
Kind of assay: Desktop Profiler kinase panel, LYN. The conditions noted are these: 10 micromolar concentration of the compound; read-out: Percent Inhibition LYN. The method, then:
as §1, §2, §3, §4

A further assay addresses T4, AurA (Homo sapiens, UniProt O14965).
T4 construct: purchased Caliper Life Sciences
T4 sequence (O14965 1-403): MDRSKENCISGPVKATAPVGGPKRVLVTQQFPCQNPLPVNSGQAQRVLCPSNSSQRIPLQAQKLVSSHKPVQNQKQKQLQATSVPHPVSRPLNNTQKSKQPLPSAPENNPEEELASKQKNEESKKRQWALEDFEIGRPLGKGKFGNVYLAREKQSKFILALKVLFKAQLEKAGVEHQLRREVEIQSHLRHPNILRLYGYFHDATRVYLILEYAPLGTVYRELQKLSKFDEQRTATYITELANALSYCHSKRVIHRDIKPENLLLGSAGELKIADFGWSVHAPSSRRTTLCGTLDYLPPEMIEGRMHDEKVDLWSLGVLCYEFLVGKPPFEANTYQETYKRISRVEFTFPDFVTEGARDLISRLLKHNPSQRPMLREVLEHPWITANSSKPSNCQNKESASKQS
Description: Desktop Profiler kinase panel, AurA. Particulars: 10 micromolar concentration of the compound; read-out: Percent Inhibition AurA. On the procedure: as §1, §2, §3, §4

The target of the next assay is T5, GSK3b (Homo sapiens, UniProt P49841).
T5 construct: purchased Caliper Life Sciences
Kind of assay: Desktop Profiler kinase panel, GSK3b. Particulars: 10 micromolar concentration of the compound; read-out: Percent Inhibition GSK3b. The method, then: as §1, §2, §3, §4

In the next assay the target is T6, PKD2 (Homo sapiens, UniProt Q9BZL6).
T6 construct: purchased Caliper Life Sciences
T6 sequence (Q9BZL6 1-878): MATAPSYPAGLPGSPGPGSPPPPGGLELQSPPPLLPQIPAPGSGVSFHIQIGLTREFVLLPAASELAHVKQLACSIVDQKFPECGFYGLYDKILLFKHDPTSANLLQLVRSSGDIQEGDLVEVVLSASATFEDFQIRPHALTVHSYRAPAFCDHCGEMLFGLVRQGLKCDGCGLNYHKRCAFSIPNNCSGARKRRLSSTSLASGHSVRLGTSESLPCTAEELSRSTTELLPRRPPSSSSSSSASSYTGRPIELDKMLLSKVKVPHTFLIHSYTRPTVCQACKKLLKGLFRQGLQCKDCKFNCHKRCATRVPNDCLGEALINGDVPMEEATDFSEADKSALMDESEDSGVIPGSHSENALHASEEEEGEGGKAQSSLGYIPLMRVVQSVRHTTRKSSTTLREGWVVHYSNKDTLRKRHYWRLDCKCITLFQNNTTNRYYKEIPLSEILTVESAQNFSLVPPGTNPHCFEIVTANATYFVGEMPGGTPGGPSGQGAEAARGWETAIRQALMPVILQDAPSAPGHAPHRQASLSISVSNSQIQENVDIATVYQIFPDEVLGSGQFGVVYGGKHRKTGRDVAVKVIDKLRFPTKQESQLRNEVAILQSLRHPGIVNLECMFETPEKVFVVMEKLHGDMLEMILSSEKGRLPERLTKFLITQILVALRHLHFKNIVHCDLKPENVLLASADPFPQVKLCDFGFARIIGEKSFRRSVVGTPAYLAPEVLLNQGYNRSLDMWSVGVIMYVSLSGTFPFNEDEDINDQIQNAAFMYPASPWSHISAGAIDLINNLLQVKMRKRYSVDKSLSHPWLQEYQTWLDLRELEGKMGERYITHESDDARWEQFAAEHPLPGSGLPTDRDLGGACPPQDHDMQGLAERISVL
Description: Desktop Profiler kinase panel, PKD2. Particulars: 10 micromolar concentration of the compound; read-out: Percent Inhibition PKD2. The method, then:
as §1, §2, §3, §4

A further assay addresses T7, FYN (Homo sapiens, UniProt P06241).
T7 construct: purchased Caliper Life Sciences
Description: Desktop Profiler kinase panel, FYN. The conditions noted are these: 10 micromolar concentration of the compound; read-out: Percent Inhibition FYN. On the procedure: as §1, §2, §3, §4

The target of another assay is T8, SRC (Homo sapiens, UniProt P12931).
T8 construct: purchased Caliper Life Sciences
Description: Desktop Profiler kinase panel, SRC. Particulars: 10 micromolar concentration of the compound; read-out: Percent Inhibition SRC. The method, then: as §1, §2, §3, §4

T3 sequence (P07948 whole entry, species assumed): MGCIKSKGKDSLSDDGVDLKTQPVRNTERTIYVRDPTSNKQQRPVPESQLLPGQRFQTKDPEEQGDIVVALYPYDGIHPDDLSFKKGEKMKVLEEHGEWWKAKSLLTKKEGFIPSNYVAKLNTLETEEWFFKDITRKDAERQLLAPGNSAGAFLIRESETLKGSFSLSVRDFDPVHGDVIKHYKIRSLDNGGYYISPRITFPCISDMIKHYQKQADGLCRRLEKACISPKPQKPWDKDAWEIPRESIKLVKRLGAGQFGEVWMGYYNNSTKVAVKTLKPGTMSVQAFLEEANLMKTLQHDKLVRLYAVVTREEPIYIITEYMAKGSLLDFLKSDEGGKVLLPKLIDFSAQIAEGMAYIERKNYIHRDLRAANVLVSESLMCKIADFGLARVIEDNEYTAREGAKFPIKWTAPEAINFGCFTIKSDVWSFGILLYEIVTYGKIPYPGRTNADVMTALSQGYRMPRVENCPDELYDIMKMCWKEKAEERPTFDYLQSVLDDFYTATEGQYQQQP
T8 sequence (P12931 whole entry, species assumed): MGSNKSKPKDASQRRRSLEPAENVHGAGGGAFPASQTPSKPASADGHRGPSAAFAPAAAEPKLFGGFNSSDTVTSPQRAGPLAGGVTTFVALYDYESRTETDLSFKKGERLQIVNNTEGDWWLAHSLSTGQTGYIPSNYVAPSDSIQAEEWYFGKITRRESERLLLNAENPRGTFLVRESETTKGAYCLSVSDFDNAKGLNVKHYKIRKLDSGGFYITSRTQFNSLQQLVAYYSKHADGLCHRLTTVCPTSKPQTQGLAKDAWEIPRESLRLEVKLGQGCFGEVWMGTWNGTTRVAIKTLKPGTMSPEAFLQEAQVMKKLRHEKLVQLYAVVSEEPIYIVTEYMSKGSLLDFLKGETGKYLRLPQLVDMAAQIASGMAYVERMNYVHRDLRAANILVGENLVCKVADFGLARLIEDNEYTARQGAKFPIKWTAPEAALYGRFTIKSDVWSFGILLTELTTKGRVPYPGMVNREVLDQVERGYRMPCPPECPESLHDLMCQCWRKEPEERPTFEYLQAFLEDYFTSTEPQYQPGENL
T1 sequence (P00519 whole entry, species assumed): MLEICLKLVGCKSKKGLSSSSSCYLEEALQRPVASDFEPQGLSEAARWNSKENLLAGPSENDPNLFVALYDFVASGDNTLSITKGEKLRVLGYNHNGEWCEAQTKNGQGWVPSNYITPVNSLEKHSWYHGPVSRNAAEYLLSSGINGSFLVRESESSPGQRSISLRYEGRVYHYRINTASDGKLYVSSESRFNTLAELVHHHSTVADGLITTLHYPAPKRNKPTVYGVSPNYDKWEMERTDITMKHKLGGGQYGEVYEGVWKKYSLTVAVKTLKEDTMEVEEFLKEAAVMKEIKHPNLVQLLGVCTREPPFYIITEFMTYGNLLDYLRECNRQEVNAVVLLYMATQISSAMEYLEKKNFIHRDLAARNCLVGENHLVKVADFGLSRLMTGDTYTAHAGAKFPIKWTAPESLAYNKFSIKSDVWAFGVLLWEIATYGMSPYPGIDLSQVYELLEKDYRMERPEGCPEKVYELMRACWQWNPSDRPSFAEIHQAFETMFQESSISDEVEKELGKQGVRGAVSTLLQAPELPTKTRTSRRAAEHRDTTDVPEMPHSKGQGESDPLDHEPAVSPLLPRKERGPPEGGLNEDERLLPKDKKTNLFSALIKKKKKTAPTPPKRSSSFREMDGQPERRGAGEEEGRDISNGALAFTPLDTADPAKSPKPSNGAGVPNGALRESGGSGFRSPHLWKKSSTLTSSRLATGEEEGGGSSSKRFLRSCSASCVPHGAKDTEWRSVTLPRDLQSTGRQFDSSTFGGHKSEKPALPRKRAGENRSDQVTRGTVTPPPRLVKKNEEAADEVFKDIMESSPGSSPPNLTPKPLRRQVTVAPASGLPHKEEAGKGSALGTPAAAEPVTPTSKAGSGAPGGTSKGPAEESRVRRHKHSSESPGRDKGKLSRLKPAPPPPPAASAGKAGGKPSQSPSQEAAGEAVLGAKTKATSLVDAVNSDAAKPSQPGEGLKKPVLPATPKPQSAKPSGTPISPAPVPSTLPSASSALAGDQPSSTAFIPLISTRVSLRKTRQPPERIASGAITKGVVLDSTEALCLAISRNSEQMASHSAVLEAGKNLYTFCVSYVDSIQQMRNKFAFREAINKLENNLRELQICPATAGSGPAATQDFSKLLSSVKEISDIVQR
T5 sequence (P49841 whole entry, species assumed): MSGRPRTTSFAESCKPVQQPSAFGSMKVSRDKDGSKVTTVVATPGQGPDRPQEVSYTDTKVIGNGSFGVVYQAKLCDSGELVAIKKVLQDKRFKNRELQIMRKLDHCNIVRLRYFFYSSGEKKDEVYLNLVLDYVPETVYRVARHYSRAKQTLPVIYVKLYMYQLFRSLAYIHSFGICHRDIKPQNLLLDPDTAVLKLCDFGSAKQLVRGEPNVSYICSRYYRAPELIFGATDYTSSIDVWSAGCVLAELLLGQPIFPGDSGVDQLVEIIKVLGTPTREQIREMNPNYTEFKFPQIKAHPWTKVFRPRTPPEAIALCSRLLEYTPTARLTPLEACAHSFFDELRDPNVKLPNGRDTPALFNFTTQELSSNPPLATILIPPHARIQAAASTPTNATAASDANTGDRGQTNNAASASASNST
T2 sequence (O96017 whole entry, species assumed): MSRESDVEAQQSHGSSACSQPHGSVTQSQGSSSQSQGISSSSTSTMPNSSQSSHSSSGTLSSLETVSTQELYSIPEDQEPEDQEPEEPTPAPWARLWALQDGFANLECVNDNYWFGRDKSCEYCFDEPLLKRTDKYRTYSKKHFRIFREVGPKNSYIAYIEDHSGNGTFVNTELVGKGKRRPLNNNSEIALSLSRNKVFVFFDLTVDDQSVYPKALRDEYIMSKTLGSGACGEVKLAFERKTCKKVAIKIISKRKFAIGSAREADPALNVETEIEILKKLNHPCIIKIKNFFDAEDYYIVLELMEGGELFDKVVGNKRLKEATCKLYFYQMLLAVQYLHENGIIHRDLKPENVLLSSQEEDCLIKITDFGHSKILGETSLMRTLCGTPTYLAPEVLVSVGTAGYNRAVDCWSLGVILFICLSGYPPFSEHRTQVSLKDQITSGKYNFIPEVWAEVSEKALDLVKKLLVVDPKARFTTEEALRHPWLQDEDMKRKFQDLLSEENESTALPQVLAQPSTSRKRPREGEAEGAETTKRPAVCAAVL
T7 sequence (P06241 whole entry, species assumed): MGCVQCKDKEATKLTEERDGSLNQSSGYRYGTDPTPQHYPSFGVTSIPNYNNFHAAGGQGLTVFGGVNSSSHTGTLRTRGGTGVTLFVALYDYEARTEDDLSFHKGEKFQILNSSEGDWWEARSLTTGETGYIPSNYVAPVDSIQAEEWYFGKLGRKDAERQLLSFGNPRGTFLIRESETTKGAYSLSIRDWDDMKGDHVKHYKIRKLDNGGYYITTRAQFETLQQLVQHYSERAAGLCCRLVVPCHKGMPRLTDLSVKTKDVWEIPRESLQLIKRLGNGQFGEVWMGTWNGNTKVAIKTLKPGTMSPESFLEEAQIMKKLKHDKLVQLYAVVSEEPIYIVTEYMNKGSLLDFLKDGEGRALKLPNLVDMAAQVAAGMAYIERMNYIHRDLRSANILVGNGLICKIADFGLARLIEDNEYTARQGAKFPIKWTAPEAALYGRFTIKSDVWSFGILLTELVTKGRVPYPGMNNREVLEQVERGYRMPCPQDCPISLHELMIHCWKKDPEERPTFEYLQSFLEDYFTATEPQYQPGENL

Usually inhibition stands for the percentage by which the read-out fell short of the control. For the molecule `O=c1[nH]c2ncccc2c2cc(Nc3cccc(F)c3)ccc12` [Example 31, 9-(3-Fluoro-phenylamino)-5H-benzo[c][1,8]naphthyridin-6-one], the inhibition at 10 µM is above 90% on ABL; 50 to 70% at CHK2; above 90% at LYN; above 90% on AurA; 70 to 90% on GSK3b; above 90% on PKD2. In addition, the inhibition at 10 µM at FYN and on SRC was 70 to 90% in each case.

As to `CC(=O)Nc1ccc(Oc2ccc3c(=O)[nH]c4ncccc4c3c2)cc1` [Example 81, N-[4-(6-Oxo-5,6-dihydro-benzo[c][1,8]naphthyridin-9-yloxy)-phenyl]-acetamide], the inhibition at 10 µM at ABL is above 90%; at CHK2, 70 to 90%; on LYN, above 90%; at AurA it was above 90%; at GSK3b, above 90%; on PKD2, above 90%. The inhibition at 10 µM on FYN and on SRC was above 90% each time.

Consider `NC(=O)c1ccc(Oc2ccc3c(=O)[nH]c4ncccc4c3c2)cc1` [Example 82], for which the inhibition at 10 µM at ABL is 70 to 90%; at CHK2, 50 to 70%; on LYN it was 70 to 90%; on AurA, above 90%; at GSK3b, 70 to 90%; at PKD2, 50 to 70%. The inhibition at 10 µM at FYN was above 90%; at SRC, 50 to 70%.
